SMILES strings stand for the structures.

The target in the experiment is T1, His6-TEV-PPARγ-(234-505) (Homo sapiens, UniProt P37231).
T1 construct: The His6-TEV-PPARγ-(234-505) protein for assay was expressed and purified; TEV cleavage site (N); made in house
T1 sequence (P37231 234-505): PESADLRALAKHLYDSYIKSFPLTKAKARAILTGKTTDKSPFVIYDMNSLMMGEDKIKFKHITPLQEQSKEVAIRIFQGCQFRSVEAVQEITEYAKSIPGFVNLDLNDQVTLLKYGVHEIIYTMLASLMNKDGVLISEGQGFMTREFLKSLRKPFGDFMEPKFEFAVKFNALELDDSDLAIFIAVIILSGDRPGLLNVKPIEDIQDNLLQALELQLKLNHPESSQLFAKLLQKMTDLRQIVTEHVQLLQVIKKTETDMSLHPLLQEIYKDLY
The experiment is described as follows: TR-FRET Assay to Measure Co-R Peptide Recruitment to PPARγ. As to conditions: Co-R peptide recruitment to PPARγ; read-out: TR-FRET AC50. The format is biochemical. In outline:
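Corepressor recruitment is measured by adding terbium-labeled anti-His antibody and FITC SMRT-ID2 peptide, at 5 and 200 nM final, after a 20-minute room-temperature protein–compound incubation. After one further hour, signal is converted to percent response between DMSO and 500 nM T0070907 wells.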
Usually AC50 stands for the concentration giving half of the maximal activity seen. With `COc1cc(-c2cc(C(=O)N3CC[C@H](CNC(=O)[C@H]4C[C@@H](C)N[C@@H](C)C4)CC34CC4)n[nH]2)c(F)cn1`, the AC50 was over 1 µM.
As to `CC(C)(C)c1ccc(CNC(=O)C2CCN(C(=O)c3cc(-c4ccncc4)[nH]n3)CC2)cn1` [N-[(6-tert-butylpyridine-3-yl)methyl]1-[5-(pyridin-4-yl)-1H-pyrazole-3-carbonyl]piperidine-4-carboxamide], the AC50 is over 1 µM.
The value for `COc1cc(-c2cc(C(=O)N3CCC(C(=O)NC4CCC(O)C4)CC3)n[nH]2)c(Cl)cn1` (stereo not shown) [1-[5-(5-chloro-2-methoxypyridin-4-yl)-1H-pyrazole-3-carbonyl]-N-(3-hydroxycyclopentyl)piperidine-4-carboxamide] was over 1 µM; that for `O=C(N[C@@H]1CCN(Cc2ccccc2)C1)C1CCN(C(=O)c2cc(-c3ccncc3)[nH]n2)CC1` [N-[(3R)-1-benzylpyrrolidin-3-yl]-1-[5-(pyridin-4-yl)-1H-pyrazole-3-carbonyl]piperidine-4-carboxamide] was over 1 µM; that for `CC(CNC(=O)C1CCCN(C(=O)c2cc(-c3ccncc3)[nH]n2)C1)c1ccccc1` (stereo not shown) [N-(2-phenylpropyl)-1-[5-(pyridin-4-yl)-1H-pyrazole-3-carbonyl]piperidine-3-carboxamide] was over 1 µM.
The value for `COc1cc(-c2cc(C(=O)N3CCC(C)(C(=O)NC4CCC(C)CC4)CC3)n[nH]2)ccn1` (stereo not shown) [1-[5-(2-methoxypyridin-4-yl)-1H-pyrazole-3-carbonyl]-4-methyl-N-(4-methylcyclohexyl)piperidine-4-carboxamide] was over 1 µM.
The result for `O=C(NCCCN1CCOCC1)C1CCN(C(=O)c2cc(-c3ccncc3)[nH]n2)CC1` [N-[3-(morpholin-4-yl)propyl]-1-[5-(pyridin-4-yl)-1H-pyrazole-3-carbonyl]piperidine-4-carboxamide] reads over 1 µM.
For the compound `O=C(NCc1ccc2c(c1)OCO2)C1CCN(C(=O)c2cc(-c3ccncc3)[nH]n2)CC1` [N-[(2H-1,3-benzodioxol-5-yl)methyl]-1-[5-(pyridin-4-yl)-1H-pyrazole-3-carbonyl]piperidine-4-carboxamide], the half-maximal activity concentration (AC50) was over 1 µM.
Take `COc1cc(-c2cc(C(=O)N3CCC(C(=O)NC4CC4)CC3)n[nH]2)c(Cl)cn1` [1-[5-(5-chloro-2-methoxypyridin-4-yl)-1H-pyrazole-3-carbonyl]-N-cyclopropylpiperidine-4-carboxamide]: the AC50 was over 1 µM.
Consider `COc1cc(-c2cc(C(=O)N3CCC(C(=O)NC4CCS(=O)(=O)c5ccc(F)cc54)CC3)n[nH]2)c(Cl)cn1` (stereo not shown) [1-[5-(5-chloro-2-methoxypyridin-4-yl)-1H-pyrazole-3-carbonyl]-N-(6-fluoro-1,1-dioxo-3,4-dihydro-2H-1λ^6-benzothiopyran-4-yl)piperidine-4-carboxamide], for which the AC50 is over 1 µM.
The result for `COc1cc(-c2cc(C(=O)N3CCC(C(=O)NCc4cn(C)cn4)CC3)n[nH]2)c(Cl)cn1` [1-[5-(5-chloro-2-methoxypyridin-4-yl)-1H-pyrazole-3-carbonyl]-N-[(1-methyl-1H-imidazol-4-yl)methyl]piperidine-4-carboxamide] reads over 1 µM.
The value for `C[C@H]1CC[C@H](NC(=O)C2CCN(C(=O)c3cc(-c4cccnc4)n[nH]3)CC2)CC1` was over 1 µM; that for `Cc1ccc(NC(=O)C2CCN(C(=O)c3cc(-c4ccncc4)[nH]n3)CC2)cc1Cl` [N-(3-chloro-4-methylphenyl)-1-[5-(pyridin-4-yl)-1H-pyrazole-3-carbonyl]piperidine-4-carboxamide] was over 1 µM; that for `COc1cc(-c2cc(C(=O)N3CCC(C(=O)NC4CCN(C5CCC5)CC4)CC3)n[nH]2)c(Cl)cn1` [1-[5-(5-chloro-2-methoxypyridin-4-yl)-1H-pyrazole-3-carbonyl]-N-(1-cyclobutylpiperidin-4-yl)piperidine-4-carboxamide] was over 1 µM.
The result for `COc1cc(-c2cc(C(=O)N3CCC(C(=O)Nc4nc(C)cnc4C)CC3)n[nH]2)c(Cl)cn1` [1-[5-(5-chloro-2-methoxypyridin-4-yl)-1H-pyrazole-3-carbonyl]-N-(3,6-dimethylpyrazin-2-yl)piperidine-4-carboxamide] reads over 1 µM; that for `COc1cc(-c2cc(C(=O)N3CCC(C(=O)NC4c5ccccc5CC4O)CC3)n[nH]2)c(Cl)cn1` (stereo not shown) [1-[5-(5-chloro-2-methoxypyridin-4-yl)-1H-pyrazole-3-carbonyl]-N-(2-hydroxy-2,3-dihydro-1H-inden-1-yl)piperidine-4-carboxamide], over 1 µM; that for `Cc1cnccc1NC(=O)C1CCN(C(=O)c2cc(-c3ccncc3)[nH]n2)CC1` [N-(3-methylpyridin-4-yl)-1-[5-(pyridin-4-yl)-1H-pyrazole-3-carbonyl]piperidine-4-carboxamide], over 1 µM.
Take `O=C(N[C@H]1CCN(Cc2ccccc2)C1)C1CCN(C(=O)c2cc(-c3cccnc3)[nH]n2)CC1` [N-[(3S)-1-benzylpyrrolidin-3-yl]-1-[5-(pyridin-3-yl)-1H-pyrazole-3-carbonyl]piperidine-4-carboxamide]: the AC50 is over 1 µM.
The value for `O=C(NC1CCC(c2ccccc2)CC1)C1CCN(C(=O)c2cc(-c3cccnc3)[nH]n2)CC1` (stereo not shown) [N-(4-phenylcyclohexyl)-1-[5-(pyridin-3-yl)-1H-pyrazole-3-carbonyl]piperidine-4-carboxamide] was over 1 µM.
The value for `COc1cc(-c2cc(C(=O)N3CC4COCC(C3)C4C(=O)NCc3cccc(Cl)c3)n[nH]2)c(Cl)cn1` (stereo not shown) [7-[5-(5-chloro-2-methoxypyridin-4-yl)-1H-pyrazole-3-carbonyl]-N-[(3-chlorophenyl)methyl]-3-oxa-7-azabicyclo[3.3.1]nonane-9-carboxamide] was over 1 µM.
The result for `COc1cc(-c2cc(C(=O)N3CCC(C(=O)Nc4cc(-c5ccccc5)[nH]n4)CC3)n[nH]2)c(Cl)cn1` [1-[5-(5-chloro-2-methoxypyridin-4-yl)-1H-pyrazole-3-carbonyl]-N-(5-phenyl-1H-pyrazol-3-yl)piperidine-4-carboxamide] reads over 1 µM; that for `COc1cc(-c2cc(C(=O)N3C[C@@H]4C[C@H]3CC4C(=O)NCc3cccc(Cl)c3)n[nH]2)c(F)cn1` (relative stereo) [(1S,4R,5R*)—N-[(3-chlorophenyl)methyl]-2-[5-(5-fluoro-2-methoxypyridin-4-yl)-1H-pyrazole-3-carbonyl]-2-azabicyclo[2.2.1]heptane-5-carboxamide], over 1 µM.
As to `COc1cc(-c2cc(C(=O)N3CCC(C(=O)NCc4c(F)ccc(C)c4F)CC3)n[nH]2)c(Cl)cn1` [1-[5-(5-chloro-2-methoxypyridin-4-yl)-1H-pyrazole-3-carbonyl]-N-[(2,6-difluoro-3-methylphenyl)methyl]piperidine-4-carboxamide], the concentration at half-maximal activity (AC50) is over 1 µM.
The value for `O=C(Nc1cccc(Cl)c1)C1CCN(C(=O)c2cc(-c3ccncc3)[nH]n2)CC1` [N-(3-chlorophenyl)-1-[5-(pyridin-4-yl)-1H-pyrazole-3-carbonyl]piperidine-4-carboxamide] was over 1 µM; that for `O=C(c1cc(-c2ccncc2)[nH]n1)N1CCC(C(=O)N2CCN(CC(F)(F)F)CC2)CC1` [1-{1-[5-(pyridin-4-yl)-1H-pyrazole-3-carbonyl]piperidine-4-carbonyl}-4-(2,2,2-trifluoroethyl)piperazine] was over 1 µM; that for `COc1cc(-c2cc(C(=O)N3CCC(C(=O)Nc4noc5cccc(F)c45)CC3)n[nH]2)c(Cl)cn1` [1-[5-(5-chloro-2-methoxypyridin-4-yl)-1H-pyrazole-3-carbonyl]-N-(4-fluoro-1,2-benzoxazol-3-yl)piperidine-4-carboxamide] was over 1 µM.
The value for `O=C(c1cc(-c2ccncc2)[nH]n1)N1CCC(C(=O)N2CCC(c3ccccc3)CC2)CC1` [4-{3-[4-(4-phenylpiperidine-1-carbonyl)piperidine-1-carbonyl]-1H-pyrazol-5-yl}pyridine] was over 1 µM; that for `CN1CCN(C(=O)C2CCN(C(=O)c3cc(-c4ccncc4)[nH]n3)CC2)CC1` was over 1 µM.
The value for `COc1cc(-c2cc(C(=O)N3CC[C@H](C(=O)NC4CCS(=N)(=O)CC4)CC34CC4)n[nH]2)c(F)cn1` (stereo partly shown) was over 1 µM; that for `COc1cc(-c2cc(C(=O)N3CCC(C(=O)NCc4cccnn4)CC3)n[nH]2)c(Cl)cn1` [1-[5-(5-chloro-2-methoxypyridin-4-yl)-1H-pyrazole-3-carbonyl]-N-[(pyridazin-3-yl)methyl]piperidine-4-carboxamide] was over 1 µM; that for `COc1cc(-c2cc(C(=O)N3CCC(C(=O)NCc4ccc(C#N)nc4)CC3)n[nH]2)c(Cl)cn1` [1-[5-(5-chloro-2-methoxypyridin-4-yl)-1H-pyrazole-3-carbonyl]-N-[(6-cyanopyridin-3-yl)methyl]piperidine-4-carboxamide] was over 1 µM.
As to `COc1cc(-c2cc(C(=O)N3CCC(C(=O)N[C@H]4CC[C@@](C)(O)CC4)CC3)n[nH]2)c(Cl)cn1`, the half-maximal activity concentration (AC50) is over 1 µM.
The value for `COc1cc(-c2cc(C(=O)N3CCC(C(=O)N[C@H]4CC[C@@]5(CCO5)CC4)CC34CC4)n[nH]2)c(F)cn1` (single isomer, unassigned) was over 1 µM.
The result for `CC1CCC(NC(=O)C2CCN(C(=O)c3cc(-c4ccnc(C5CC5)c4)[nH]n3)CC2)CC1` (stereo not shown) [1-[5-(2-cyclopropylpyridin-4-yl)-1H-pyrazole-3-carbonyl]-N-(4-methylcyclohexyl)piperidine-4-carboxamide] reads over 1 µM.

The values are drawn from patent US12606541B2, “PPARg modulators and methods of use” (Eisai R&D Management Co., Ltd., priority 2020, dated 2026).
